# Assay results published in PMC5454994, “Assembly of Hepatocyte Spheroids Using Magnetic 3D Cell Culture for CYP450 Inhibition/Induction” (International Journal of Molecular Sciences, 2017).
# How the values were obtained:
# [1] = target: T1, CYP2B6 (Homo sapiens, UniProt P20813); conditions: CYP2B6 replicates, primary human hepatocytes, 72 h exposure
# T1 sequence (P20813 1-491): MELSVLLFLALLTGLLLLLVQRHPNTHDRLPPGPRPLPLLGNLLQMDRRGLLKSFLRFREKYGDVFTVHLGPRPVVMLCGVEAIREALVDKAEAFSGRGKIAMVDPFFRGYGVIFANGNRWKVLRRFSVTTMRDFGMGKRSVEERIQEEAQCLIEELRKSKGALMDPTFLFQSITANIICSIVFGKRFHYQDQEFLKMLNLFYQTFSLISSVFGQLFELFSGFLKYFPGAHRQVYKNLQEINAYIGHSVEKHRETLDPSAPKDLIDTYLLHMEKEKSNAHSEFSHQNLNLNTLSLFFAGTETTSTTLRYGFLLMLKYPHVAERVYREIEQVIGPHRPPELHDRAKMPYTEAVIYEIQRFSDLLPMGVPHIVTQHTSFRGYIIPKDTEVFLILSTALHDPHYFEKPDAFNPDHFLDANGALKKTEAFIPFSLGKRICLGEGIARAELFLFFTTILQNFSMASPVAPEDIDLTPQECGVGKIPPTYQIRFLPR
# [2] = target: T2, CYP1A2 (Homo sapiens, UniProt P05177); test: CYP1A2 activity (P450-Glo, Luciferin-1A2) in primary human hepatocyte spheroids and monolayers after 72 h drug exposure; format: in vitro ADME; conditions: primary human hepatocytes, 72 h exposure
# T2 sequence (P05177 1-516): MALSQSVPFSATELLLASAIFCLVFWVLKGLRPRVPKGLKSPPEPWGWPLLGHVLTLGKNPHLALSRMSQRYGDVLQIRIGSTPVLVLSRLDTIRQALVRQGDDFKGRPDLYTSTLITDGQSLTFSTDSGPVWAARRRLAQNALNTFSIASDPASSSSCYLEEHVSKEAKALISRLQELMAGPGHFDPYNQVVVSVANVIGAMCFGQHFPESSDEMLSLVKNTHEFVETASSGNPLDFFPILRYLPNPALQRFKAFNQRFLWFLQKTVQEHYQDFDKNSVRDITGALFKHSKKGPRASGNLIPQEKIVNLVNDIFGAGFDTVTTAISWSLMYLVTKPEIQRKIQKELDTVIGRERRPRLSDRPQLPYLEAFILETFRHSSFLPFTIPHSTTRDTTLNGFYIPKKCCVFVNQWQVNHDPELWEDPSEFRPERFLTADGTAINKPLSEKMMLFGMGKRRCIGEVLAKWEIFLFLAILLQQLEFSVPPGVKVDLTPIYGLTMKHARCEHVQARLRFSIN
Compound,CYP2B6 activity in the presence of toxicity [1],CYP1A2 activity in the presence of toxicity [2],"CYP1A2 induction, monolayers compared to spheroids ([2]; normalized to control)"
CO[C@H]1/C=C/O[C@@]2(C)Oc3c(C)c(O)c4c(O)c(c(/C=N/N5CCN(C)CC5)c(O)c4c3C2=O)NC(=O)/C(C)=C\C=C\[C@H](C)[C@H](O)[C@@H](C)[C@@H](O)[C@@H](C)[C@H](OC(C)=O)[C@@H]1C [rifampicin],no observed decrease in CYP activity despite toxicity,,
COc1ccc2[nH]c([S+]([O-])Cc3ncc(C)c(OC)c3C)nc2c1 (stereo not drawn) [omeprazole],,no observed decrease in CYP activity despite toxicity,higher in monolayers compared to spheroids
